# Structures can show the parent of a compound that is named as a salt.
# Test system: lactate oxidase
# Assay: Enzyme Stability Test: oxalate as stabilising agent for lactate oxidase in S4932 rinse solution (Example 5)
# Type: biochemical, Pediococcus
# Method: Colorimetric lactate oxidase assay
# The formation of H2 O2 is determined in a peroxidase (POD) assay system where a quinonimine dye is formed. The amount of formed quinonimine dye is determined spectrophotometically at 490 nm.
# 100 μL of Reagent A is added to a well of a microtiterplate (Immunoplate, Nunc, Roskilde, Denmark). The colour reaction is started by adding 100 μL of the Enzyme Solution. Immediately afterwards, the microtiterplate is placed in the plate-holder of a THERMOmax incubator (Molecular Devices, Menlo Park, Calif., USA) pre-set to: 37° C., kinetic mode, lag-time 5 min., reading time 15 min., and automix.
# The enzymatic activity of lactate oxidase (and also other enzymes) is decreasing exponentially. Therefore, the half-life period (t1/2) for the enzymatic activity will be independent of the initial concentration, and, thus, t1/2 is an excellent expression for the stability of an enzyme under various conditions.
# The enzymatic activity is determined (as described in the Enzyme Activity Test above) for the enzyme composition in question at least four times over a relevant period, e.g. every day for at least four days (day 0 to day 3). t1/2 is then calculated following standard mathematical methods.
# A solution of 0.04 U/mL lactate oxidase in S4932 rinse solution (Radiometer Medical A/S, Copenhagen, Denmark) was prepared. Disodium oxalate corresponding to a total concentration of 1, 2, 4, 8, and 16 mM of oxalate was added. The enzymatic activity of the solutions was determined five times over a period of 13 days. The enzymatic stability of these solutions was compared with the enzymatic stability of a solution without oxalate.
smiles,measurement,setting,value
"O=C(O)C(=O)O [Oxalate, disodium oxalate]",Enzymatic Activity,"oxalate 1 mM, time 0 h, 0.04 U/mL lactate oxidase",13.76 mOD/min.
same,Enzymatic Activity,"oxalate 1 mM, time 68.5 h",11.47 mOD/min.
same,Enzymatic Activity,"oxalate 1 mM, time 148 h",11.01 mOD/min.
same,Enzymatic Activity,"oxalate 1 mM, time 199 h",9.89 mOD/min.
same,Enzymatic Activity,"oxalate 1 mM, time 319 h",8.67 mOD/min.
same,Enzymatic Activity,"oxalate 2 mM, time 0 h, 0.04 U/mL lactate oxidase",13.63 mOD/min.
same,Enzymatic Activity,"oxalate 2 mM, time 68.5 h",12.08 mOD/min.
same,Enzymatic Activity,"oxalate 2 mM, time 148 h",11.07 mOD/min.
same,Enzymatic Activity,"oxalate 2 mM, time 199 h",9.92 mOD/min.
same,Enzymatic Activity,"oxalate 2 mM, time 319 h",8.63 mOD/min.
same,Enzymatic Activity,"oxalate 4 mM, time 0 h, 0.04 U/mL lactate oxidase",12.87 mOD/min.
same,Enzymatic Activity,"oxalate 4 mM, time 68.5 h",11.90 mOD/min.
same,Enzymatic Activity,"oxalate 4 mM, time 148 h",11.36 mOD/min.
same,Enzymatic Activity,"oxalate 4 mM, time 199 h",10.36 mOD/min.
same,Enzymatic Activity,"oxalate 4 mM, time 319 h",9.60 mOD/min.
same,Enzymatic Activity,"oxalate 8 mM, time 0 h, 0.04 U/mL lactate oxidase",11.86 mOD/min.
same,Enzymatic Activity,"oxalate 8 mM, time 68.5 h",11.34 mOD/min.
same,Enzymatic Activity,"oxalate 8 mM, time 148 h",10.86 mOD/min.
same,Enzymatic Activity,"oxalate 8 mM, time 199 h",9.84 mOD/min.
same,Enzymatic Activity,"oxalate 8 mM, time 319 h",9.33 mOD/min.
same,Enzymatic Activity,"oxalate 16 mM, time 0 h, 0.04 U/mL lactate oxidase",10.37 mOD/min.
same,Enzymatic Activity,"oxalate 16 mM, time 68.5 h",10.15 mOD/min.
same,Enzymatic Activity,"oxalate 16 mM, time 148 h",9.72 mOD/min.
same,Enzymatic Activity,"oxalate 16 mM, time 199 h",8.81 mOD/min.
same,Enzymatic Activity,"oxalate 16 mM, time 319 h",8.65 mOD/min.
